We go through five compounds from the supplement of paper PMC10307832.

One assay relates to A-427. As to the kind of experiment: relative viability (nuclei count vs DMSO), 5 days (fraction); higher = more cells survive. As to conditions: first compound 0.08 µM. The method in brief: (§1)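 Each reported value is a median over duplicate plates. It expresses relative viability: treated-well nuclei count divided by vehicle-well nuclei count. Lung cancer cell lines in 1536-well plates were dosed by pin tool a day after seeding, alone with one drug or with a fixed anchor-drug dose plus five library-drug doses (not always all listed) in √10 steps, and nuclei were counted after 5 days.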
Consider `Oc1nc(-c2ccc(C(F)(F)F)cc2)nc2c1CSCC2` [XAV939] + O=C(CCCCCCC(=O)Nc1ccccc1)NO [Vorinostat] (partner 1 µM), for which the relative viability stood at 0.804.

`Oc1nc(-c2ccc(C(F)(F)F)cc2)nc2c1CSCC2` [XAV939] + O=C(c1cc(Cc2n[nH]c(=O)c3ccccc23)ccc1F)N1CCN(C(=O)C2CC2)CC1 [Olaparib] (partner 8 µM) returned a relative viability of 0.785.

Turning to `Oc1nc(-c2ccc(C(F)(F)F)cc2)nc2c1CSCC2` [XAV939] + CC(=O)c1c(C)c2cnc(Nc3ccc(N4CCNCC4)cn3)nc2n(C2CCCC2)c1=O [Palbociclib] (partner 0.5 µM), the relative viability was 0.525.

In the case of `C=C1C(=O)O[C@@H](CCCCCCCC)[C@@H]1C(=O)O` [C-75] + CC(=O)c1c(C)c2cnc(Nc3ccc(N4CCNCC4)cn3)nc2n(C2CCCC2)c1=O [Palbociclib] (partner 0.5 µM), the relative viability amounted to 0.531.

Take `C=C1C(=O)O[C@@H](CCCCCCCC)[C@@H]1C(=O)O` [C-75] + Nc1ncn([C@H]2C[C@H](O)[C@@H](CO)O2)c(=O)n1 [Decitabine] (partner 2 µM): the relative viability came to 0.607.

Still in this assay, the particulars now being: first compound 0.253 µM.
As to `Oc1nc(-c2ccc(C(F)(F)F)cc2)nc2c1CSCC2` [XAV939] + O=C(CCCCCCC(=O)Nc1ccccc1)NO [Vorinostat] (partner 1 µM), the relative viability is 0.869.

Regarding `Oc1nc(-c2ccc(C(F)(F)F)cc2)nc2c1CSCC2` [XAV939] + O=C(c1cc(Cc2n[nH]c(=O)c3ccccc23)ccc1F)N1CCN(C(=O)C2CC2)CC1 [Olaparib] (partner 8 µM), the relative viability is 0.584.

Consider `Oc1nc(-c2ccc(C(F)(F)F)cc2)nc2c1CSCC2` [XAV939] + CC(=O)c1c(C)c2cnc(Nc3ccc(N4CCNCC4)cn3)nc2n(C2CCCC2)c1=O [Palbociclib] (partner 0.5 µM), for which the relative viability amounted to 0.52.

For the compound `C=C1C(=O)O[C@@H](CCCCCCCC)[C@@H]1C(=O)O` [C-75] + CC(=O)c1c(C)c2cnc(Nc3ccc(N4CCNCC4)cn3)nc2n(C2CCCC2)c1=O [Palbociclib] (partner 0.5 µM), the relative viability turned out to be 0.468.

With `C=C1C(=O)O[C@@H](CCCCCCCC)[C@@H]1C(=O)O` [C-75] + Nc1ncn([C@H]2C[C@H](O)[C@@H](CO)O2)c(=O)n1 [Decitabine] (partner 2 µM), the relative viability amounted to 0.533.

Still in this assay, the particulars now being: first compound 0.8 µM.
Turning to `Oc1nc(-c2ccc(C(F)(F)F)cc2)nc2c1CSCC2` [XAV939] + O=C(CCCCCCC(=O)Nc1ccccc1)NO [Vorinostat] (partner 1 µM), the relative viability worked out at 0.895.

With `Oc1nc(-c2ccc(C(F)(F)F)cc2)nc2c1CSCC2` [XAV939] + O=C(c1cc(Cc2n[nH]c(=O)c3ccccc23)ccc1F)N1CCN(C(=O)C2CC2)CC1 [Olaparib] (partner 8 µM), the relative viability was determined as 0.706.

`Oc1nc(-c2ccc(C(F)(F)F)cc2)nc2c1CSCC2` [XAV939] + CC(=O)c1c(C)c2cnc(Nc3ccc(N4CCNCC4)cn3)nc2n(C2CCCC2)c1=O [Palbociclib] (partner 0.5 µM) came in with a relative viability of 0.502.

`C=C1C(=O)O[C@@H](CCCCCCCC)[C@@H]1C(=O)O` [C-75] + CC(=O)c1c(C)c2cnc(Nc3ccc(N4CCNCC4)cn3)nc2n(C2CCCC2)c1=O [Palbociclib] (partner 0.5 µM) gave a relative viability of 0.49.

Turning to `C=C1C(=O)O[C@@H](CCCCCCCC)[C@@H]1C(=O)O` [C-75] + Nc1ncn([C@H]2C[C@H](O)[C@@H](CO)O2)c(=O)n1 [Decitabine] (partner 2 µM), the relative viability turned out to be 0.487.

The same assay, now with this note: first compound 2.53 µM.
On to `Oc1nc(-c2ccc(C(F)(F)F)cc2)nc2c1CSCC2` [XAV939] + O=C(CCCCCCC(=O)Nc1ccccc1)NO [Vorinostat] (partner 1 µM), for which the relative viability was 0.745.

Regarding `Oc1nc(-c2ccc(C(F)(F)F)cc2)nc2c1CSCC2` [XAV939] + O=C(c1cc(Cc2n[nH]c(=O)c3ccccc23)ccc1F)N1CCN(C(=O)C2CC2)CC1 [Olaparib] (partner 8 µM), the relative viability came to 0.663.

`Oc1nc(-c2ccc(C(F)(F)F)cc2)nc2c1CSCC2` [XAV939] + CC(=O)c1c(C)c2cnc(Nc3ccc(N4CCNCC4)cn3)nc2n(C2CCCC2)c1=O [Palbociclib] (partner 0.5 µM): the relative viability came out at 0.504.

`C=C1C(=O)O[C@@H](CCCCCCCC)[C@@H]1C(=O)O` [C-75] + CC(=O)c1c(C)c2cnc(Nc3ccc(N4CCNCC4)cn3)nc2n(C2CCCC2)c1=O [Palbociclib] (partner 0.5 µM): the relative viability was 0.464.

In the case of `C=C1C(=O)O[C@@H](CCCCCCCC)[C@@H]1C(=O)O` [C-75] + Nc1ncn([C@H]2C[C@H](O)[C@@H](CO)O2)c(=O)n1 [Decitabine] (partner 2 µM), the relative viability turned out to be 0.428.

The assay is the same for the next values; noted with them: first compound 8 µM.
On to `C=C1C(=O)O[C@@H](CCCCCCCC)[C@@H]1C(=O)O` [C-75] + CC(=O)c1c(C)c2cnc(Nc3ccc(N4CCNCC4)cn3)nc2n(C2CCCC2)c1=O [Palbociclib] (partner 0.5 µM), for which the relative viability was 0.523.

With `C=C1C(=O)O[C@@H](CCCCCCCC)[C@@H]1C(=O)O` [C-75] + Nc1ncn([C@H]2C[C@H](O)[C@@H](CO)O2)c(=O)n1 [Decitabine] (partner 2 µM), the relative viability came to 0.512.

The test system of the next assay is EKVX. The description is as above. As to conditions: first compound 0.08 µM. The gist of the method: as §1
`Oc1nc(-c2ccc(C(F)(F)F)cc2)nc2c1CSCC2` [XAV939] + O=C(CCCCCCC(=O)Nc1ccccc1)NO [Vorinostat] (partner 1 µM) returned a relative viability of 0.816.

`Oc1nc(-c2ccc(C(F)(F)F)cc2)nc2c1CSCC2` [XAV939] + O=C(c1cc(Cc2n[nH]c(=O)c3ccccc23)ccc1F)N1CCN(C(=O)C2CC2)CC1 [Olaparib] (partner 8 µM) displayed a relative viability of 0.929.

Take `Oc1nc(-c2ccc(C(F)(F)F)cc2)nc2c1CSCC2` [XAV939] + CC(=O)c1c(C)c2cnc(Nc3ccc(N4CCNCC4)cn3)nc2n(C2CCCC2)c1=O [Palbociclib] (partner 0.5 µM): the relative viability came out at 0.383.

Turning to `C=C1C(=O)O[C@@H](CCCCCCCC)[C@@H]1C(=O)O` [C-75] + CC(=O)c1c(C)c2cnc(Nc3ccc(N4CCNCC4)cn3)nc2n(C2CCCC2)c1=O [Palbociclib] (partner 0.5 µM), the relative viability amounted to 0.4.

On to `C=C1C(=O)O[C@@H](CCCCCCCC)[C@@H]1C(=O)O` [C-75] + Nc1ncn([C@H]2C[C@H](O)[C@@H](CO)O2)c(=O)n1 [Decitabine] (partner 2 µM), for which the relative viability worked out at 0.399.

Still in this assay, the particulars now being: first compound 0.253 µM.
In turn, `Oc1nc(-c2ccc(C(F)(F)F)cc2)nc2c1CSCC2` [XAV939] + O=C(c1cc(Cc2n[nH]c(=O)c3ccccc23)ccc1F)N1CCN(C(=O)C2CC2)CC1 [Olaparib] (partner 8 µM) gave a relative viability of 0.514.

Compound `Oc1nc(-c2ccc(C(F)(F)F)cc2)nc2c1CSCC2` [XAV939] + CC(=O)c1c(C)c2cnc(Nc3ccc(N4CCNCC4)cn3)nc2n(C2CCCC2)c1=O [Palbociclib] (partner 0.5 µM) had a relative viability of 0.343.
